Measurements taken from paper PMC4279406, “Simultaneous targeting of PI3Kδ and a PI3Kδ-dependent MEK1/2-Erk1/2 pathway for therapy in pediatric B-cell acute lymphoblastic leukemia” (Oncotarget, 2014).

Tests used:
Format in all cases: cell-based, human
[1] = tested on: primary non B-ALL leukemia cells; assay: Viability of primary mononuclear cells from pediatric patients (CCK-8); details: 72 h, 1/7 specimens
Text: (§1) Figure 3 PI3Kδ inhibition led to blockade of B cell leukemia cells proliferation via induction of cell cycle arrest and apoptosis Raji cells treated with X-370 for indicated times and at serial diluted concentrations were subjected to Annexin V-FITC/PI staining (A) and PI staining (B) and FACS analysis to show cell apoptosis and cell cycle distribution respectively. (C) X-370 inhibited proliferation of human leukemia primary cells. Freshly isolated human primary mononuclear cells from bone marrow samples of patients were treated with X-370 for 72 h and cell viability was assayed using CCK-8 assay. IC50s of each sample were plotted where 10 μM was assigned to specimens with IC50 >10 μM. Each symbol represents an individual patient sample. […]
(§2) Cell viability was assessed using Cell Counting Kit (CCK-8, Dojindo, Japan) following the manufacturer's protocol and OD values were measured with a Spectramax M5 plate reader (Molecular Devices, Sunnyvale, CA)[45].
(§3) Bone marrow was obtained from patients after provision of informed consent using guidelines approved by the Committee on the Use of Human Subjects in Research at Shanghai Jiaotong University or Shanghai Fudan University under a protocol approved by the Review Board. […] Cell viability and phosphorylated Akt and Erk1/2 were then detected.

primary B-ALL cells [2] = assay: as above; details: 72 h, 8/13 specimens
Text: as §1, §2, §3

primary B-ALL cells [3] = assay: Phosphorylated Akt and Erk1/2 in primary B-ALL cells (Western blot); details: 72 h
Description: Figure 6 X-370-sensitive human primary B-ALL cells contained PI3K-dependent Erk1/2 phosphorylation and combination of AZD6244 and X-370 enhanced inhibitory activity against resistant specimens (A) X-370-sensitive human primary B-ALL cells contained PI3K-dependent Erk1/2 phosphorylation. Primary B-ALL cells were treated with series diluted X-370 for 72 h. Phosphorylation of Akt and Erk1/2 were detected. (B). Combination of AZD6244 and X-370 enhanced inhibitory activity against resistant specimens. X-370 resistant primary B-ALL cells were treated with 1 μM X-370 alone or cocurently with MEK1/2 inhibitor AZD6244 (1 μM) for 72 h and cell viability were tested by CCK-8 assay. Cell viability of each treated group was compared with unpaired t-tests. *: P < 0.05. (C) X-370-resistant primary B-ALL cells were treated with X-370 in the presence of 1 μM AZD6244 or not for 72 h and phosphorylated Akt and Erk1/2 were then detected by Western blot.
as §3

O=C(N1CCCC1)N1CCC(n2cnc3c(-n4c(C(F)F)nc5ccccc54)nc(N4CCOCC4)nc32)CC1 [X-370]
non B-ALL specimens sensitive with IC50<1 μM [1]: 14% | B-ALL specimens sensitive with IC50<1 μM (primary B-ALL cells [2]): 61% | phosphorylated Erk1/2 (primary B-ALL cells [3]; resistant (IC50>1 μM) samples): remained unaffected | phosphorylated Akt and Erk1/2 (primary B-ALL cells [3]; sensitive (IC50<1 μM) specimens, < 1 μM): dramatically decreased
